Source: patent US8163702B2, “Treatment of melanoma” (SciClone Pharmaceuticals, Inc., priority 2006, dated 2012)

Tested on: murine B16 melanoma
Assay: Antitumor effect in murine B16 melanoma model, tumor size and tumor weight (Example 2)
Type: in vivo, C57BL/6 mice
Method: As per aseptic tissue culture procedures, one vial of B16 melanoma cells (supplied by Cell Culture Center of CAMS) was thawed and centrifuged at 1000 rpm, 20-25° C. for 5 minutes. The cell pellets were suspended in 0.1-0.5 mL normal saline (NS) and subcutaneously injected into the right axilla of each mouse (approximately 1×10^6 cells/mouse). When the tumor diameter was 1 cm approximately (measured by vernier caliper), the animals were euthanized with CO2 asphyxiation and the tumor was excised. Tumor cells were suspended in normal saline as previously described and the cell adaptation cycle was repeated once.
On Day 0, 1×10^6 B16 cells in a volume of 0.1 mL normal saline were subcutaneously injected into the right axillary area of the mouse. The day of tumor inoculation was defined as Day 0.
Dosing was initiated on Day 1.
Observations were recorded daily for mortality and moribundity. […] The tumors were excised, separated, and weighed.
Tumor volume was calculated using the following formula: Tumor Volume=Length×Width×Width/2 Tumor volume inhibition rate (IR) was calculated according to the formula: IR(TV)=(TVvehicle−TVdrug treated)/TVvehicle×100% TV is the tumor volume on the day of measurement.
The antitumor effect of the test article was also evaluated by tumor weight. The tumor weight of each mouse was recorded after euthanasia, and the inhibition rate of tumor weight was calculated according to the formula: IR(TW)=(Tumor weightvehicle−Tumor weightdrug treated)/Tumor weightvehicle×100%

[1] = Day 9, mouse M1, SCV-07 0.1 mg/kg sc
[2] = Day 9, mouse M1, SCV-07 1.0 mg/kg sc
[3] = Day 9, mouse M1, SCV-07 5.0 mg/kg sc
[4] = Day 9, mouse M2, SCV-07 0.01 mg/kg sc
[5] = Day 9, mouse M2, SCV-07 1.0 mg/kg sc
[6] = Day 9, mouse M3, SCV-07 0.01 mg/kg sc
[7] = Day 9, mouse M3, SCV-07 1.0 mg/kg sc
[8] = Day 9, mouse M3, SCV-07 5.0 mg/kg sc
[9] = Day 9, mouse M4, SCV-07 0.1 mg/kg sc
[10] = Day 9, mouse M4, SCV-07 1.0 mg/kg sc
[11] = Day 9, mouse M4, SCV-07 5.0 mg/kg sc
[12] = Day 9, mouse M5, SCV-07 0.01 mg/kg sc
[13] = Day 9, mouse M5, SCV-07 0.1 mg/kg sc
[14] = Day 12, SCV-07 0.01 mg/kg/day sc
[15] = Day 12, SCV-07 0.1 mg/kg/day sc
[16] = Day 12, SCV-07 1.0 mg/kg/day sc
[17] = Day 12, SCV-07 5.0 mg/kg/day sc
[18] = Day 12, mouse F1, SCV-07 0.01 mg/kg sc
[19] = Day 12, mouse F1, SCV-07 0.1 mg/kg sc
[20] = Day 12, mouse F1, SCV-07 1.0 mg/kg sc
[21] = Day 12, mouse F1, SCV-07 5.0 mg/kg sc
[22] = Day 12, mouse F2, SCV-07 0.01 mg/kg sc
[23] = Day 12, mouse F2, SCV-07 0.1 mg/kg sc
[24] = Day 12, mouse F2, SCV-07 1.0 mg/kg sc

N[C@H](CCC(=O)N[C@@H](Cc1c[nH]c2ccccc12)C(=O)O)C(=O)O [SCV-07, γ-D-glutamyl-L-tryptophan]
Tumor measurements W [1]: 0.3 cm
Tumor volumes [1]: 0.01 cm^3
Tumor measurements L [2]: 0.3 cm
Tumor measurements W [2]: 0.3 cm
Tumor volumes [2]: 0.01 cm^3
Tumor measurements L [3]: 0.5 cm
Tumor measurements W [3]: 0.5 cm
Tumor volumes [3]: 0.06 cm^3
Tumor measurements L [4]: 0.4 cm
Tumor measurements W [4]: 0.4 cm
Tumor volumes [4]: 0.03 cm^3
Tumor volumes (Day 9, mouse M2, SCV-07 0.1 mg/kg sc): 0.00 cm^3
Tumor measurements L [5]: 0.5 cm
Tumor measurements W [5]: 0.5 cm
Tumor volumes [5]: 0.06 cm^3
Tumor measurements L [6]: 0.4 cm
Tumor measurements W [6]: 0.3 cm
Tumor volumes [6]: 0.02 cm^3
Tumor volumes (Day 9, mouse M3, SCV-07 0.1 mg/kg sc): 0.00 cm^3
Tumor measurements L [7]: 0.3 cm
Tumor measurements W [7]: 0.3 cm
Tumor volumes [7]: 0.01 cm^3
Tumor measurements L [8]: 0.5 cm
Tumor measurements W [8]: 0.5 cm
Tumor volumes [8]: 0.06 cm^3
Tumor measurements L [9]: 0.3 cm
Tumor measurements W [9]: 0.3 cm
Tumor volumes [9]: 0.01 cm^3
Tumor measurements L [10]: 0.3 cm
Tumor measurements W [10]: 0.3 cm
Tumor volumes [10]: 0.01 cm^3
Tumor measurements L [11]: 0.5 cm
Tumor measurements W [11]: 0.5 cm
Tumor volumes [11]: 0.06 cm^3
Tumor measurements L [12]: 0.5 cm
Tumor measurements W [12]: 0.5 cm
Tumor volumes [12]: 0.06 cm^3
Tumor measurements L [13]: 0.5 cm
Tumor measurements W [13]: 0.5 cm
Tumor volumes [13]: 0.06 cm^3
IR (tumor volume inhibition rate) [14]: 51.2%
Tumor Volume (Mean ± SD) [14]: 0.368 ± 0.223 cm^3
IR (tumor volume inhibition rate) [15]: 37.7%
Tumor Volume (Mean ± SD) [15]: 0.469 ± 0.199 cm^3
IR (tumor volume inhibition rate) [16]: 61.3%
Tumor Volume (Mean ± SD) [16]: 0.292 ± 0.169 cm^3
IR (tumor volume inhibition rate) [17]: 54.9%
Tumor Volume (Mean ± SD) [17]: 0.340 ± 0.195 cm^3
Tumor measurements L [18]: 0.1 cm
Tumor measurements W [18]: 0.1 cm
Tumor volumes [18]: 5E−04 cm^3
Tumor measurements L [19]: 1.0 cm
Tumor measurements W [19]: 1.0 cm
Tumor volumes [19]: 0.50 cm^3
Tumor measurements L [20]: 1.0 cm
Tumor measurements W [20]: 0.7 cm
Tumor volumes [20]: 0.25 cm^3
Tumor measurements L [21]: 1.0 cm
Tumor measurements W [21]: 0.9 cm
Tumor volumes [21]: 0.41 cm^3
Tumor measurements L [22]: 1.0 cm
Tumor measurements W [22]: 0.7 cm
Tumor volumes [22]: 0.25 cm^3
Tumor measurements L [23]: 1.0 cm
Tumor measurements W [23]: 1.0 cm
Tumor volumes [23]: 0.50 cm^3
Tumor measurements L [24]: 0.9 cm
Tumor measurements W [24]: 0.9 cm
Tumor volumes [24]: 0.36 cm^3
